# Measured values taken from US11447470B2, “Pyrimidinone-containing compound, preparation method thereof, pharmaceutical composition and application thereof” (YUNNAN UNIVERSITY, priority 2018, dated 2022).
# Like-named read-outs stand apart in the source and are kept apart here.
# Key:
# Type in all cases: cell-based
# [1] = system: C8166 cells; experiment: Cytotoxicity experiment (MTT method) on C8166 cells
# Description: (§1) C8166 cells infected with HIV-1 were used for determining the anti-HIV biological activity at the cellular level. The specific method was described below.
# (§2) Cytotoxicity experiment: The toxicity of the compounds on C8166 cells was determined by MTT method. In 96-well cell culture plates, the compounds were subjected to 5-fold serial dilution and 100 μL of C8166 cell suspension (4×10^5/mL) was added into each well. Triplicate wells were set for each concentration. […] The cells were incubated at 37° C. in a 5% CO2 incubator for three days, followed by the addition of MTT solution into each well, and then the cells were incubated at 37° C. for 4 hours. 10% SDS-50% DMF was added into each well and the cells were incubated at 37° C. in a 5% CO2 incubator overnight. After mixing evenly, the OD values were measured by BIO-TEK ELx800 ELISA instrument (determination wavelength: 570 nm; reference wavelength: 630 nm).
# [2] = as above; conditions: human
# Description: as §1, §2
# [3] = system: HIV-1IIIB; experiment: Syncytium inhibition experiment, C8166 cells infected with HIV-1IIIB; conditions: Human immunodeficiency virus 1, 72 h; HIV-1IIIB (MOI=0.04) in C8166 cells, syncytium count, three days
# Description: as §1
# Syncytium inhibition experiment: 100 μL of C8166 cell suspension (4×10^5/mL) was seeded into each well of 96-well cell culture plates containing 5-fold serial dilutions of the compounds, followed by addition of HIV-1IIIB diluted supernatant (MOI=0.04). Triplicate wells were set for each serial concentration. […] The cells were cultured at 37° C. in a 5% CO2 incubator for three days. The number of the syncytia was counted in five non-overlapping fields of view by using an inverted microscope (100×).
Compound,EC50 [3] [nM],"CC50 ([1]; C8166 cells, MTT, three days, read-out: CC50) [nM]","CC50 at 3 days ([2]; C8166 cells in vitro, read-out: CC50 values on C8166 cells) [nM]","CC50 ([1]; human, 3 days) [nM]",CC50 at 3 days [2] [nM]
CCc1c(CC2CCCCC2)nc(SCc2n[nH]c(-c3ccc(Cl)c(Cl)c3)c2Cl)[nH]c1=O [Compound I-13],349,> 200000,> 200000,–,–
COc1ccc(-c2cc(CSc3nc(CC4CCCCC4)c(C(C)C)c(=O)[nH]3)n[nH]2)cc1 [Compound I-40],12,–,–,> 200000,> 200000
CCc1c(Cc2cc(F)cc(F)c2)nc(SCc2cc(-c3ccc(F)cc3)[nH]n2)[nH]c1=O [Compound I-52],97,–,–,> 200000,> 200000
CCc1c(Cc2cc(F)cc(F)c2)nc(SCc2n[nH]c(-c3ccccc3)c2Cl)[nH]c1=O [Compound I-69],55,–,–,–,> 200000
CCc1c(Cc2ccc3c(c2)OCO3)nc(SCc2n[nH]c(-c3ccccc3)c2Cl)[nH]c1=O [Compound I-72],81,–,–,–,> 200000

# Second part, led by results:
EC50 [3] [nM],Compound,"CC50 ([1]; C8166 cells, MTT, three days, read-out: CC50) [nM]","CC50 at 3 days ([2]; C8166 cells in vitro, read-out: CC50 values on C8166 cells) [nM]","CC50 ([1]; human, 3 days) [nM]",CC50 at 3 days [2] [nM]
837,CCc1c(Cc2ccccc2)nc(SCc2cc(-c3ccc(F)cc3)[nH]n2)[nH]c1=O [Compound I-49],–,–,> 200000,> 200000
141,CCc1c(Cc2ccccc2)nc(SCc2n[nH]c(-c3ccc(F)c(F)c3)c2Cl)[nH]c1=O [Compound I-53],–,–,> 200000,> 200000
700,CCc1c(Cc2c(Cl)cccc2Cl)nc(SCc2n[nH]c(-c3ccc(F)c(F)c3)c2Cl)[nH]c1=O [Compound I-55],–,–,> 200000,> 200000
92,CCc1c(Cc2c(Cl)cccc2Cl)nc(SCc2n[nH]c(-c3ccccc3)c2Cl)[nH]c1=O [Compound I-70],–,–,–,> 200000
51,CCc1c(Cc2ccccc2)nc(SCc2n[nH]c(-c3ccccc3)c2Cl)[nH]c1=O [Compound I-71],–,–,–,> 200000
